Results on eleven compounds are retold here after PubChem BioAssay AID210 (DTP/NCI, 2004).

This test deals with CD2F1 mice, ip Colon 26 adenocarcinoma, median survival T/C. In words: NCI In Vivo Anticancer Drug Screen. Data for tumor model Colon 26 Adenocarcinoma (intraperitoneal) in CD2F1 (CDF1) mice. The note with it: endpoint: median survival time, higher = longer survival. Here is the method:
The antitumor activity of compounds was measured in mice bearing transplantable tumors. Survival or tumor size were measured and the results are expressed as the measurement made in the treated group (T) divided by the measurement made in the vehicle treated control group (C). The tumor model used in this assay is Colon 26 Adenocarcinoma (intraperitoneal) in CD2F1 (CDF1) mice

The mark [1] stands for this setting: dose: 6.25 mg/kg/injection, schedule: Q04DX003 (ip), vehicle: saline with Tween-80.
The mark [2] stands for this setting: dose: 12.5 mg/kg/injection, schedule: Q04DX003 (ip), vehicle: saline with Tween-80.
The mark [3] stands for this setting: dose: 25.0 mg/kg/injection, schedule: Q04DX003 (ip), vehicle: saline with Tween-80.
The mark [4] stands for this setting: dose: 50.0 mg/kg/injection, schedule: Q04DX003 (ip), vehicle: saline with Tween-80.

Where “and” joins values, the source holds several entries; their conditions need not be identical. Equal entries are not always repeated. Inconclusive results and toxic doses are left out.

As for `Nc1nc([Se])c2ncn(C3OC(CO)C(O)C3O)c2n1` (stereo not drawn), the T/C (dose: 4.0 mg/kg/injection, schedule: Q04DX003 (ip), vehicle: saline) was 114 % of control; the T/C (dose: 4.0 mg/kg/injection, schedule: Q04DX003 (ip), vehicle: suspension in saline) was 116 % of control; the T/C (dose: 8.0 mg/kg/injection, schedule: Q04DX003 (ip), vehicle: saline) was 104 % of control; the T/C (dose: 8.0 mg/kg/injection, schedule: Q04DX003 (ip), vehicle: suspension in saline) was 106 % of control; the T/C (dose: 16.0 mg/kg/injection, schedule: Q04DX003 (ip), vehicle: saline) is 109 % of control; the T/C (dose: 16.0 mg/kg/injection, schedule: Q04DX003 (ip), vehicle: suspension in saline) is 114 % of control. Also, the T/C is 111 % of control (dose: 32.0 mg/kg/injection, schedule: Q04DX003 (ip), vehicle: saline); 116 % of control (dose: 32.0 mg/kg/injection, schedule: Q04DX003 (ip), vehicle: suspension in saline); 121 % of control (dose: 64.0 mg/kg/injection, schedule: Q04DX003 (ip), vehicle: saline); 114 % of control (dose: 64.0 mg/kg/injection, schedule: Q04DX003 (ip), vehicle: suspension in saline).

Turning to `COC(=O)[C@@]12OC[C@]34[C@H]([C@@H](O)[C@@H]1O)[C@@]1(C)CC(=O)C(O)=C(C)[C@@H]1C[C@H]3OC(=O)[C@H](OC(=O)/C=C(\C)C(C)C)[C@@H]24`, the T/C by setting is: (dose: 0.66 mg/kg/injection, schedule: Q04DX003 (iv), vehicle: saline with Tween-80) 97 % of control; (dose: 1.0 mg/kg/injection, schedule: Q04DX003 (iv), vehicle: saline with Tween-80) 94 % of control; (dose: 1.5 mg/kg/injection, schedule: Q04DX003 (iv), vehicle: saline with Tween-80) 94 % of control; (dose: 2.3 mg/kg/injection, schedule: Q04DX003 (iv), vehicle: saline with Tween-80) 92 % of control; (dose: 3.5 mg/kg/injection, schedule: Q04DX003 (iv), vehicle: saline with Tween-80) 96 % of control.

For the compound `COc1ccc(CC2C(=O)NC(C)C(=O)N(C)C3Cc4ccc(cc4)Oc4cc(ccc4O)CC(C(=O)NC(C)C(=O)NC(C)C(=O)N2C)N(C)C3=O)cc1` (stereo not drawn), the T/C (dose: 0.5 mg/kg/injection, schedule: Q04DX003 (ip), vehicle: saline) was 97 % of control; the T/C (dose: 1.0 mg/kg/injection, schedule: Q04DX003 (ip), vehicle: saline) was 98 % of control; the T/C (dose: 2.0 mg/kg/injection, schedule: Q04DX003 (ip), vehicle: saline) was 87 % of control; the T/C (dose: 2.59 mg/kg/injection, schedule: Q04DX003 (ip), vehicle: other) is 99 % of control; the T/C (dose: 4.32 mg/kg/injection, schedule: Q04DX003 (ip), vehicle: other) was 103 % of control; the T/C (dose: 7.2 mg/kg/injection, schedule: Q04DX003 (ip), vehicle: other) was 112 % of control. The T/C (dose: 12.0 mg/kg/injection, schedule: Q04DX003 (ip), vehicle: other) is 113 % of control.

On to `CC1(CO)C(O)CCC2(C)C1CCC1CC3CC12CCC3(O)CO` (stereo not drawn), for which the T/C (dose: 25.0 mg/kg/injection, schedule: Q01DX009 (ip), vehicle: saline with Tween-80) was 167 % of control; the T/C (dose: 50.0 mg/kg/injection, schedule: Q04DX003 (oral), vehicle: saline with Tween-80) was 105 % of control and 106 % of control and 113 % of control; the T/C (dose: 100.0 mg/kg/injection, schedule: Q04DX003 (oral), vehicle: saline with Tween-80) was 101 % of control and 119 % of control and 100 % of control; the T/C (dose: 600.0 mg/kg/injection, schedule: Q04DX003 (ip), vehicle: saline with Tween-80) was 100 % of control; the T/C (dose: 1600.0 mg/kg/injection, schedule: Q04DX003 (oral), vehicle: saline with Tween-80) is 106 % of control.

Turning to `CCOC(=O)Nc1cc2c(c(N)n1)N=C(CN(C)c1ccccc1)CN2`, the T/C is, setting by setting: (dose: 6.25 mg/kg/injection, schedule: Q04DX003 (ip), vehicle: Klucel (hydroxypropylcellulose) (HPC)) 108 % of control; (dose: 25.0 mg/kg/injection, schedule: Q04DX003 (ip), vehicle: Klucel (hydroxypropylcellulose) (HPC)) 177 % of control; (dose: 50.0 mg/kg/injection, schedule: Q04DX003 (ip), vehicle: Klucel (hydroxypropylcellulose) (HPC)) 119 % of control.

Consider `COc1cc2c3cc1Oc1c(O)c(OC)cc4c1[C@H](Cc1ccc(cc1)Oc1cc(ccc1O)C[C@H]3N(C)CC2)N(C)CC4`, for which the T/C runs as follows: (dose: 5.0 mg/kg/injection, schedule: Q04DX003 (ip), vehicle: distilled water + Tween-80) 95 % of control; (dose: 10.0 mg/kg/injection, schedule: Q04DX003 (ip), vehicle: distilled water + Tween-80) 103 % of control; (dose: 20.0 mg/kg/injection, schedule: Q04DX003 (ip), vehicle: distilled water + Tween-80) 97 % of control; (dose: 40.0 mg/kg/injection, schedule: Q04DX003 (ip), vehicle: distilled water + Tween-80) 115 % of control; (dose: 40.0 mg/kg/injection, schedule: Q04DX003 (ip), vehicle: saline with Tween-80) 95 % of control.

In the case of `COc1cc(C)c2c(c1C=O)Oc1c(c(C)c(O)c3c1C(O)OC3=O)OC2=O` (stereo not drawn), the T/C is, setting by setting: (dose: 3.12 mg/kg/injection, schedule: Q04DX003 (ip), vehicle: saline with Tween-80) 103 % of control; under setting [1], 103 % of control; under setting [2], 104 % of control; under setting [3], 101 % of control; under setting [4], 112 % of control.

Regarding `COc1ccc2cc1Oc1ccc(cc1)C[C@H]1c3cc(c(OC)cc3CCN1C)Oc1c(OC)c(OC)cc3c1[C@H](C2)N(C)CC3`, the T/C by setting is: under setting [2], 92 % of control; under setting [3], 101 % of control; under setting [4], 92 % of control; (dose: 100.0 mg/kg/injection, schedule: Q04DX003 (ip), vehicle: saline with Tween-80) 94 % of control; (dose: 200.0 mg/kg/injection, schedule: Q04DX003 (ip), vehicle: saline with Tween-80) 101 % of control.

For `COC(=O)C(F)C(Br)C(=O)OC` (stereo not drawn), the T/C by setting is: under setting [1], 102 % of control; under setting [2], 102 % of control; under setting [3], 111 % of control; under setting [4], 114 % of control.

With `C=C(NC(=O)C(=C)NC(=O)c1csc(C2=NC3c4csc(n4)C4NC(=O)c5csc(n5)C(C(C)(O)C(C)O)NC(=O)C5CSC(=N5)/C(=C/C)NC(=O)C(C(C)O)NC(=O)c5csc(n5)C3(CC2)NC(=O)C(C)NC(=O)C(=C)NC(=O)C(C)NC(=O)C(C(C)CC)NC2C=Cc3c(C(C)O)cc(nc3C2O)C(=O)OC4C)n1)C(N)=O` (stereo not drawn), the T/C is, setting by setting: (dose: 5.0 mg/kg/injection, schedule: Q04DX003 (ip), vehicle: Klucel (hydroxypropylcellulose) (HPC)) 120 % of control; (dose: 10.0 mg/kg/injection, schedule: Q04DX003 (ip), vehicle: Klucel (hydroxypropylcellulose) (HPC)) 90 % of control; (dose: 20.0 mg/kg/injection, schedule: Q04DX003 (ip), vehicle: Klucel (hydroxypropylcellulose) (HPC)) 100 % of control; (dose: 40.0 mg/kg/injection, schedule: Q04DX003 (ip), vehicle: Klucel (hydroxypropylcellulose) (HPC)) 110 % of control; (dose: 80.0 mg/kg/injection, schedule: Q04DX003 (ip), vehicle: Klucel (hydroxypropylcellulose) (HPC)) 102 % of control; (dose: 160.0 mg/kg/injection, schedule: Q04DX003 (ip), vehicle: Klucel (hydroxypropylcellulose) (HPC)) 92 % of control.

Turning to `Cc1cn(C2CC(O)C(CO)O2)c(=O)[nH]c1=O` (stereo not drawn), the T/C runs as follows: (dose: 12.5 mg/kg/injection, schedule: Q04DX003 (ip), vehicle: saline) 98 % of control; (dose: 25.0 mg/kg/injection, schedule: Q04DX003 (ip), vehicle: saline) 98 % of control; (dose: 50.0 mg/kg/injection, schedule: Q04DX003 (ip), vehicle: saline) 98 % of control; (dose: 64.0 mg/kg/injection, schedule: Q04DX002 (ip), vehicle: suspension in saline) 101 % of control; (dose: 100.0 mg/kg/injection, schedule: Q04DX003 (ip), vehicle: saline) 96 % of control and 100 % of control; (dose: 128.0 mg/kg/injection, schedule: Q04DX002 (ip), vehicle: saline) 88 % of control. The T/C (dose: 128.0 mg/kg/injection, schedule: Q04DX002 (ip), vehicle: suspension in saline) was 100 % of control; the T/C (dose: 200.0 mg/kg/injection, schedule: Q04DX003 (ip), vehicle: saline) was 99 % of control and 100 % of control; the T/C (dose: 256.0 mg/kg/injection, schedule: Q04DX002 (ip), vehicle: suspension in saline) is 94 % of control; the T/C (dose: 400.0 mg/kg/injection, schedule: Q04DX003 (ip), vehicle: saline) is 116 % of control and 98 % of control; the T/C (dose: 512.0 mg/kg/injection, schedule: Q04DX002 (ip), vehicle: suspension in saline) was 94 % of control; the T/C (dose: 1024.0 mg/kg/injection, schedule: Q04DX002 (ip), vehicle: saline) was 92 % of control. Where the note is “dose: 1024.0 mg/kg/injection, schedule: Q04DX002 (ip), vehicle: suspension in saline”, the T/C was 95 % of control.
